tested on: Recombinant human AMPK proteins (α1β1γ1, α2β1γ1, α1(1-335), α1(1-394) or α2(1-394)); experiment: Scintillation Proximity Assay (SPA) of AMPK activation; assay type: biochemical; details: activator concentration for 50% of maximal enzyme activity; 50 nM recombinant AMPK, 2 μM ATP, 30° C., 2 hr
Method: Recombinant human AMPK α1β1γ1, α2β1γ1 or AMPK α subunit truncations α1(1-335), α1(1-394) and α2(1-394) were constructed, expressed and purified as described previously (Pang, T., Zhang, Z. S., Gu, M., Qiu, B. Y., Yu, L. F., Cao, P. R., Shao, W., Su, M. B., Li, J. Y., Nan, F. J., and Li, J. (2008)). Rat liver AMPK heterotrimer enzyme was obtained from Upstate (Billerica, Mass., U.S.A.).
Scintillation Proximity Assay
Before the Scintillation Proximity Assay (SPA) assay, 200 nM recombinant AMPK proteins (α1β1γ1, α2β1γ1, α1(1-335), α1(1-394) or α2(1-394)) were fully phosphorylated as described previously (Pang et al., 2008). SPA reactions were performed in 96-well plates at a final volume of 501 containing 20 mM Tris-HCl pH 7.5, 5 mM MgCl2, 1 mM DTT, 2 μM biotin-SAMS, 2 μM ATP, 0.2 μCi/well [γ-^33P]ATP, and various amount of activator. Reactions were initiated by the addition of 50 nM recombinant AMPK proteins to the reaction solutions and incubated at 30° C. for 2 hr. After that, reactions were terminated by the addition of 401 stop solution containing 80 μg streptavidin-coated SPA beads per well, 50 mM EDTA, 0.1% Triton X-100 in PBS, pH 7.5 and incubated for 1 hr. Finally, a 160 ul suspension solution containing 2.4 M CsCl, 50 mM EDTA, and 0.1% Triton X-100 in PBS (pH 7.5) was added to the reaction solution to suspend SPA beads completely. SPA signals were determined with a Wallac MicroBeta plate counter (PerkinElmer) 30 min later for calculation of the amount of product formed. The amount of products formed in 2 hr was plotted against activator concentrations to determine the effective concentration of the activator (EC50) required for 50% of maximal enzyme activity.
Compounds as described above have EC50 values between 0.5 uM and 50 uM, preferred compounds have EC50 values between 0.5 uM and 10 uM, particularly preferred compounds have EC50 values between 0.5 uM and 1 uM.

Row | SMILES | EC50 [µM]
1 | COC(=O)c1cccc(CN2C(=O)/C(=C(\c3ccccc3)c3cccc(C(F)(F)F)c3)c3ccccc32)c1 [Example 30, 3-{2-Oxo-3-[1-phenyl-1-(3-trifluoromethyl-phenyl)-meth-(E)-ylidene]-2,3-dihydro-indol-1-ylmethyl}-benzoic acid methyl ester] | 1.65
2 | COc1ccc(/C(=C2/C(=O)N(Cc3cccc(C(=O)O)c3)c3ccccc32)c2ccccc2)cc1 [Example 46, 3-{3-[1-(4-Methoxy-phenyl)-1-phenyl-meth-(E)-ylidene]-2-oxo-2,3-dihydro-indol-1-ylmethyl}-benzoic acid] | 4.02
3 | O=C(O)c1cccc(CN2C(=O)/C(=C(\c3ccccc3)c3ccc(Cl)cc3)c3c(F)cccc32)c1 [Example 60, 3-{3-[1-(4-Chloro-phenyl)-1-phenyl-meth-(E)-ylidene]-4-fluoro-2-oxo-2,3-dihydro-indol-1-ylmethyl}-benzoic acid] | 1.24
4 | O=C(O)c1cccc(CN2C(=O)/C(=C(\c3ccccc3)c3cc(Cl)cc(Cl)c3)c3ccccc32)c1 [Example 54, 3-{3-[1-(3,5-Dichloro-phenyl)-1-phenyl-meth-(E)-ylidene]-2-oxo-2,3-dihydro-indol-1-ylmethyl}-benzoic acid] | 5.14
5 | O=C(O)c1cccc(CN2C(=O)/C(=C(\c3ccccc3)c3cccc(C(F)(F)F)c3)c3ccccc32)c1 [Example 66, 3-{2-Oxo-3-[1-phenyl-1-(3-trifluoromethyl-phenyl)-meth-(E)-ylidene]-2,3-dihydro-indol-1-ylmethyl}-benzoic acid] | 2.44
6 | O=C(O)c1cccc(CN2C(=O)/C(=C(\c3ccccc3)c3ccc(Cl)cc3)c3ccc(F)cc32)c1 [Example 61, 3-{3-[1-(4-Chloro-phenyl)-1-phenyl-meth-(E)-ylidene]-6-fluoro-2-oxo-2,3-dihydro-indol-1-ylmethyl}-benzoic acid] | 4.93
7 | COC(=O)c1cc(N2C(=O)/C(=C(\C)c3ccccc3)c3ccccc32)ccc1C [Example 3, 2-Methyl-5-{2-oxo-3-[1-phenyl-eth-(E)-ylidene]-2,3-dihydro-indol-1-yl}-benzoic acid methyl ester] | 5.61
8 | COC(=O)c1cccc(CN2C(=O)/C(=C(\c3ccccc3)c3ccccc3Br)c3ccccc32)c1 [Example 23, 3-{3-[1-(2-Bromo-phenyl)-1-phenyl-meth-(E)-ylidene]-2-oxo-2,3-dihydro-indol-1-ylmethyl}-benzoic acid methyl ester] | 6.97
9 | O=C(O)c1cccc(CN2C(=O)/C(=C(\c3ccccc3)c3ccc(F)c(F)c3)c3ccccc32)c1 [Example 72, 3-{3-[1-(3,4-Difluoro-phenyl)-1-phenyl-meth-(E)-ylidene]-2-oxo-2,3-dihydro-indol-1-ylmethyl}-benzoic acid] | 3.3
10 | COC(=O)c1cccc(CN2C(=O)/C(=C(/CC(C)(C)C)c3ccccc3)c3ccccc32)c1 [Example 78, 3-{3-[3,3-Dimethyl-1-phenyl-but-(Z)-ylidene]-2-oxo-2,3-dihydro-indol-1-ylmethyl}-benzoic acid methyl ester] | 1.6
11 | CSc1ccccc1/C(=C1/C(=O)N(Cc2cccc(C(=O)O)c2)c2ccccc21)c1ccccc1 [Example 62, 3-{3-[1-(2-Methylsulfanyl-phenyl)-1-phenyl-meth-(E)-ylidene]-2-oxo-2,3-dihydro-indol-1-ylmethyl}-benzoic acid] | 2.33
12 | O=C1/C(=C(\c2ccccc2)c2ccc(Cl)cc2)c2ccccc2N1Cc1ccc(O)cc1 [Example 43, 3-[1-(4-Chloro-phenyl)-1-phenyl-meth-(E)-ylidene]-1-(4-hydroxy-benzyl)-1,3-dihydro-indol-2-one] | 3.23
13 | O=C1/C(=C(/c2ccccc2)c2ccc(Cl)cc2)c2ccccc2N1Cc1cc(O)c(O)c(O)c1 [Example 42, 3-[1-(4-Chloro-phenyl)-1-phenyl-meth-(Z)-ylidene]-1-(3,4,5-trihydroxy-benzyl)-1,3-dihydro-indol-2-one] | 4.5
14 | O=C(O)c1cccc(CN2C(=O)/C(=C(/c3ccc(Cl)cc3)C3CCCCC3)c3ccccc32)c1 [Example 104, 3-{3-[1-(4-Chloro-phenyl)-1-cyclohexyl-meth-(E)-ylidene]-2-oxo-2,3-dihydro-indol-1-ylmethyl}-benzoic acid] | 4.63

The remaining compounds from weak to strong by EC50, led by results:

Row | EC50 [µM] | SMILES
15 | 5.66 | COC(=O)c1cccc(CN2C(=O)/C(=C(\c3ccccc3)c3ccc(Cl)cc3)c3cc(F)ccc32)c1 [Example 18, 3-{3-[1-(4-Chloro-phenyl)-1-phenyl-meth-(E)-ylidene]-5-fluoro-2-oxo-2,3-dihydro-indol-1-ylmethyl}-benzoic acid methyl ester]
16 | 5.19 | O=C(O)c1ccc(CN2C(=O)/C(=C(\c3ccccc3)c3ccc(Cl)cc3)c3ccccc32)nc1 [Example 59, 6-{3-[1-(4-Chloro-phenyl)-1-phenyl-meth-(E)-ylidene]-2-oxo-2,3-dihydro-indol-1-ylmethyl}-nicotinic acid]
17 | 5.14 | O=C(O)c1cccc(CN2C(=O)/C(=C(\c3ccccc3)c3ccc(Cl)cc3)c3cccc(F)c32)c1 [Example 73, 3-{3-[1-(4-Chloro-phenyl)-1-phenyl-meth-(E)-ylidene]-7-fluoro-2-oxo-2,3-dihydro-indol-1-ylmethyl}-benzoic acid]
18 | 4.51 | O=C1/C(=C(\c2ccccc2)c2ccc(Cl)cc2)c2ccccc2N1Cc1cc(O)c(O)c(O)c1 [Example 41, 3-[1-(4-Chloro-phenyl)-1-phenyl-meth-(E)-ylidene]-1-(3,4,5-trihydroxy-benzyl)-1,3-dihydro-indol-2-one]
19 | 4.49 | CC(C)NC(=O)c1cccc(CN2C(=O)/C(=C(\c3ccccc3)c3ccc(Cl)cc3)c3ccccc32)c1 [Example 37, 3-{3-[1-(4-Chloro-phenyl)-1-phenyl-meth-(E)-ylidene]-2-oxo-2,3-dihydro-indol-1-ylmethyl}-N-isopropyl-benzamide]
20 | 4.44 | COC(=O)c1cccc(CN2C(=O)/C(=C(/c3ccc(Cl)cc3)c3ccccc3OC)c3ccccc32)c1 [Example 10, 3-{3-[1-(4-Chloro-phenyl)-1-(2-methoxy-phenyl)-meth-(Z)-ylidene]-2-oxo-2,3-dihydro-indol-1-ylmethyl}-benzoic acid methyl ester]
21 | 3.69 | CCOC(=O)COc1ccc(CN2C(=O)/C(=C(\c3ccccc3)c3ccc(Cl)cc3)c3ccccc32)cc1 [Example 36, (4-{3-[1-(4-Chloro-phenyl)-1-phenyl-meth-(E)-ylidene]-2-oxo-2,3-dihydro-indol-1-ylmethyl}-phenoxy)-acetic acid ethyl ester]
22 | 2.94 | O=C(O)c1cccc(CN2C(=O)/C(=C(\c3ccccc3)c3cccc(Cl)c3Cl)c3ccccc32)c1 [Example 55, 3-{3-[1-(2,3-Dichloro-phenyl)-1-phenyl-meth-(E)-ylidene]-2-oxo-2,3-dihydro-indol-1-ylmethyl}-benzoic acid]
23 | 2.73 | COC(=O)c1cccc(CN2C(=O)/C(=C(\c3ccccc3)c3cccc(Br)c3)c3ccccc32)c1 [Example 27, 3-{3-[1-(3-Bromo-phenyl)-1-phenyl-meth-(E)-ylidene]-2-oxo-2,3-dihydro-indol-1-ylmethyl}-benzoic acid methyl ester]
24 | 2.38 | COc1ccccc1/C(=C1\C(=O)N(Cc2cccc(C(=O)O)c2)c2ccccc21)c1ccc(Cl)cc1 [Example 47, 3-{3-[1-(4-Chloro-phenyl)-1-(2-methoxy-phenyl)-meth-(Z)-ylidene]-2-oxo-2,3-dihydro-indol-1-ylmethyl}-benzoic acid]
25 | 1.86 | COC(=O)c1cccc(CN2C(=O)/C(=C(\c3ccccc3)c3ccc(F)c(Cl)c3)c3ccccc32)c1 [Example 13, 3-{3-[1-(3-Chloro-4-fluoro-phenyl)-1-phenyl-meth-(E)-ylidene]-2-oxo-2,3-dihydro-indol-1-ylmethyl}-benzoic acid methyl ester]
26 | 1.6 | CC(C)/C(Cc1ccc(Cl)cc1)=C1\C(=O)N(Cc2cccc(C(=O)O)c2)c2ccccc21 [Example 82, 3-{3-[1-(4-Chloro-benzyl)-2-methyl-prop-(Z)-ylidene]-2-oxo-2,3-dihydro-indol-1-ylmethyl}-benzoic acid]
27 | 1.57 | CCOC(=O)c1csc(CN2C(=O)/C(=C(\c3ccccc3)c3ccc(Cl)cc3)c3ccccc32)n1 [Example 39, 2-{3-[1-(4-Chloro-phenyl)-1-phenyl-meth-(E)-ylidene]-2-oxo-2,3-dihydro-indol-1-ylmethyl}-thiazole-4-carboxylic acid ethyl ester]
28 | 1.49 | COC(=O)Cc1cccc(N2C(=O)/C(=C(\C)c3ccccc3)c3ccccc32)c1 [Example 2, (3-{2-Oxo-3-[1-phenyl-eth-(E)-ylidene]-2,3-dihydro-indol-1-yl}-phenyl)-acetic acid methyl ester]
